The conditions of this data set: 1000 kPa, Liquid, Coaxial cylinder method.

Each structure is given as a SMILES string. ± gives the expanded uncertainty stated by the source.

As to `COCCOC` [1,2-dimethoxyethane], the thermal conductivity is recorded as 0.1605 ± 0.0071 W/m/K (302.75 K), 0.1452 ± 0.0064 W/m/K (332.54 K), 0.1317 ± 0.0059 W/m/K (362.39 K) and 0.1183 ± 0.0053 W/m/K (392.16 K).

In the case of `COCCOCCOCCOCCOC` [2,5,8,11,14-pentaoxapentadecane], the thermal conductivity is, setting by setting: (302.75 K) 0.1469 ± 0.0065 W/m/K; (332.54 K) 0.1407 ± 0.0063 W/m/K; (362.39 K) 0.1345 ± 0.006 W/m/K; (392.16 K) 0.1274 ± 0.0057 W/m/K.

For `COCCOCCOCCOC` [2,5,8,11-tetraoxadodecane], the thermal conductivity is on record as 0.1433 ± 0.0064 W/m/K (302.75 K), 0.137 ± 0.0061 W/m/K (332.54 K), 0.1303 ± 0.0058 W/m/K (362.39 K) and 0.1227 ± 0.0055 W/m/K (392.16 K).

Take `COCCOCCOC` [2,5,8-trioxanonane]: the thermal conductivity runs as follows: (302.75 K) 0.1461 ± 0.0065 W/m/K; (332.54 K) 0.1324 ± 0.0059 W/m/K; (362.39 K) 0.1205 ± 0.0054 W/m/K; (392.16 K) 0.1076 ± 0.0048 W/m/K.

Take `COCC(C)OCC(C)OC` (centres undefined) [2-methoxy-1-(2-methoxy-1-methylethoxy)propane]: the thermal conductivity by setting is: (302.75 K) 0.1242 ± 0.0056 W/m/K; (332.54 K) 0.1169 ± 0.0052 W/m/K; (362.39 K) 0.1085 ± 0.0049 W/m/K; (392.16 K) 0.099 ± 0.0045 W/m/K.

As for `c1ccccc1` [benzene], the thermal conductivity is, setting by setting: (302.75 K) 0.1409 ± 0.0037 W/m/K; (332.54 K) 0.1304 ± 0.0035 W/m/K; (362.39 K) 0.1194 ± 0.0032 W/m/K; (392.16 K) 0.1098 ± 0.003 W/m/K.

The values above are taken from the NIST ThermoML archive (doi:10.1021/je900641w).
